Tested on: HOP-62 multicell spheroids with HUVEC/MSC, viability
Experiment: Anticancer human tumor HOP-62 cell line growth inhibition [KRAS2];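 further: viability read after a week of compound exposure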;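 on viability, T/C: 100% = DMSO vehicle-treated spheroids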
Settings: for IC50: curve of first compound; for viability, T/C: stronger effect = lower value
Outline: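 KRAS-mutant tumor cells were grown as spheroids with HUVEC endothelial cells and human MSCs as stroma. Targeted agents were tested alone and with KRAS pathway inhibitors. Doses started at or near clinical Cmax, or 10 microM, descending half-log.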

[1] = second compound 0.1 µM, first compound 0.01 µM
[2] = second compound 0.1 µM, first compound 0.0316 µM
[3] = second compound 0.1 µM, first compound 0.1 µM
[4] = second compound 0.1 µM, first compound 0.316 µM
[5] = second compound 0.1 µM, first compound 1 µM
[6] = second compound 0.316 µM, first compound 0.01 µM
[7] = second compound 0.316 µM, first compound 0.0316 µM
[8] = second compound 0.316 µM, first compound 0.1 µM
[9] = second compound 0.316 µM, first compound 0.316 µM
[10] = second compound 0.316 µM, first compound 1 µM
[11] = second compound 1 µM, first compound 0.01 µM
[12] = second compound 1 µM, first compound 0.0316 µM
[13] = second compound 1 µM, first compound 0.1 µM
[14] = second compound 1 µM, first compound 0.316 µM
[15] = second compound 1 µM, first compound 1 µM
[16] = second compound 3.16 µM, first compound 0.01 µM
[17] = second compound 3.16 µM, first compound 0.0316 µM
[18] = second compound 3.16 µM, first compound 0.1 µM
[19] = second compound 3.16 µM, first compound 0.316 µM
[20] = second compound 3.16 µM, first compound 1 µM
[21] = second compound 10 µM, first compound 0.01 µM
[22] = second compound 10 µM, first compound 0.0316 µM
[23] = second compound 10 µM, first compound 0.1 µM
[24] = second compound 10 µM, first compound 0.316 µM
[25] = second compound 10 µM, first compound 1 µM
[26] = second compound 0.1 µM, first compound 0.00316 µM
[27] = second compound 0.316 µM, first compound 0.00316 µM
[28] = second compound 1 µM, first compound 0.00316 µM
[29] = second compound 3.16 µM, first compound 0.00316 µM

SMILES | IC50 (second compound 0.1 µM) | IC50 (second compound 0.316 µM) | IC50 (second compound 1 µM) | IC50 (second compound 3.16 µM) | IC50 (second compound 10 µM) | viability, T/C [1] | viability, T/C [2] | viability, T/C [3] | viability, T/C [4] | viability, T/C [5] | viability, T/C [6] | viability, T/C [7] | viability, T/C [8] | viability, T/C [9] | viability, T/C [11] | viability, T/C [12] | viability, T/C [13] | viability, T/C [16] | viability, T/C [17] | viability, T/C [18] | further results
CC1COCCN1c1cc(-c2ccnn2C)c2ccnc(-c3ccn[nH]3)c2n1 (stereo not given) + CNCc1ccccc1-c1csc(C(C)Nc2nc(C)nc3cc(OC)c(OC)cc23)c1 | 54.9 nM | 61.1 nM | 36.9 nM | < 10 nM | < 10 nM | 106% | 73.1% | 25.3% | 13.5% | 14% | 106% | 78.8% | 28.7% | 14.2% | 94.9% | 53.9% | 25.2% | 3.68% | 0.24% | 2.16% | viability, T/C (second compound 0.1 µM, first compound 3.16 µM): 16.4%; viability, T/C [10]: 15.2%; viability, T/C (second compound 0.316 µM, first compound 3.16 µM): 14.3%; viability, T/C [14]: 17.4%; viability, T/C [15]: 14.7%; viability, T/C (second compound 1 µM, first compound 3.16 µM): 12.8%; viability, T/C [19]: 0.06%; viability, T/C [20]: 0.06%; viability, T/C (second compound 3.16 µM, first compound 3.16 µM): 0.27%; viability, T/C [21]: 0.1%; viability, T/C [22]: 0.64%; viability, T/C [23]: 0.08%; viability, T/C [24]: 0.09%; viability, T/C [25]: 0.58%; viability, T/C (second compound 10 µM, first compound 3.16 µM): 0.16%
CCN1CCN(Cc2ccc(Nc3ncc(F)c(-c4cc(F)c5nc(C)n(C(C)C)c5c4)n3)nc2)CC1 + CNCc1ccccc1-c1csc(C(C)Nc2nc(C)nc3cc(OC)c(OC)cc23)c1 | > 1000 nM | > 1000 nM | 257 nM | < 3.16 nM | < 3.16 nM | 112% | 95.3% | 90.4% | 72.6% | 54.4% | 90.4% | 81.3% | 71% | 71.7% | 73.6% | 72.9% | 52.6% | 0.5% | 0.14% | 0.21% | viability, T/C [26]: 102%; viability, T/C [27]: 108%; viability, T/C [10]: 48.4%; viability, T/C [28]: 97%; viability, T/C [14]: 51.4%; viability, T/C [15]: 41.4%; viability, T/C [29]: 0.39%; viability, T/C [19]: 0.17%; viability, T/C [20]: 0.16%; viability, T/C (second compound 10 µM, first compound 0.00316 µM): 0.1%; viability, T/C [21]: 0.1%; viability, T/C [22]: 0.1%; viability, T/C [23]: 0.11%; viability, T/C [24]: 0.1%; viability, T/C [25]: 0.16%
CN(C)C/C=C/C(=O)Nc1cc2c(Nc3ccc(F)c(Cl)c3)ncnc2cc1O[C@H]1CCOC1 + C=CC(=O)N1CCN(c2nc(OCC3CCCN3C)nc3c2CCN(c2cccc4cccc(C)c24)C3)CC1CC#N | > 100 nM | 4.39 nM | < 0.316 nM | < 0.316 nM | – | 61.5% | 67.4% | 61.2% | – | – | 48.8% | 46.8% | 42.1% | – | 37% | 31.5% | 32.2% | 6.01% | 17.6% | 13.5% | IC50 (second compound 0.0316 µM): > 100 nM; viability, T/C (second compound 0.0316 µM, first compound 0.000316 µM): 111%; viability, T/C (second compound 0.0316 µM, first compound 0.001 µM): 105%; viability, T/C (second compound 0.0316 µM, first compound 0.00316 µM): 94.9%; viability, T/C (second compound 0.0316 µM, first compound 0.01 µM): 86%; viability, T/C (second compound 0.0316 µM, first compound 0.0316 µM): 99.3%; viability, T/C (second compound 0.0316 µM, first compound 0.1 µM): 89.6%; viability, T/C (second compound 0.1 µM, first compound 0.000316 µM): 69%; viability, T/C (second compound 0.1 µM, first compound 0.001 µM): 75.4%; viability, T/C [26]: 67.1%; viability, T/C (second compound 0.316 µM, first compound 0.000316 µM): 57.4%; viability, T/C (second compound 0.316 µM, first compound 0.001 µM): 52.6%; viability, T/C [27]: 49.4%; viability, T/C (second compound 1 µM, first compound 0.000316 µM): 42.8%; viability, T/C (second compound 1 µM, first compound 0.001 µM): 44.9%; viability, T/C [28]: 41%; viability, T/C (second compound 3.16 µM, first compound 0.000316 µM): 22.5%; viability, T/C (second compound 3.16 µM, first compound 0.001 µM): 0.2%; viability, T/C [29]: 3.5%

Source: PubChem BioAssay AID1963858 (Molecular Pharmacology Branch, DTP, NCI, 2024)
